Experimental findings from patent US12226424B2, “Target protein degradation compounds, their anti-tumor use, their intermediates and use of intermediates” (ShanghaiTech University, priority 2018, dated 2025) are described below.

The target of experiment [1] is BCR-ABL (Homo sapiens, UniProt P00519). The experiment is described as follows: Western-blot half-degradation concentration (DC50) / degradation of BCR-ABL in K562 cells. Conditions: read-out: DC50 (nM)/K562 cell line, BCR-ABL protein degradation, 24 hours, Western-blot.
Chain of BCR-ABL (P00519 with tags, fused parts or gaps): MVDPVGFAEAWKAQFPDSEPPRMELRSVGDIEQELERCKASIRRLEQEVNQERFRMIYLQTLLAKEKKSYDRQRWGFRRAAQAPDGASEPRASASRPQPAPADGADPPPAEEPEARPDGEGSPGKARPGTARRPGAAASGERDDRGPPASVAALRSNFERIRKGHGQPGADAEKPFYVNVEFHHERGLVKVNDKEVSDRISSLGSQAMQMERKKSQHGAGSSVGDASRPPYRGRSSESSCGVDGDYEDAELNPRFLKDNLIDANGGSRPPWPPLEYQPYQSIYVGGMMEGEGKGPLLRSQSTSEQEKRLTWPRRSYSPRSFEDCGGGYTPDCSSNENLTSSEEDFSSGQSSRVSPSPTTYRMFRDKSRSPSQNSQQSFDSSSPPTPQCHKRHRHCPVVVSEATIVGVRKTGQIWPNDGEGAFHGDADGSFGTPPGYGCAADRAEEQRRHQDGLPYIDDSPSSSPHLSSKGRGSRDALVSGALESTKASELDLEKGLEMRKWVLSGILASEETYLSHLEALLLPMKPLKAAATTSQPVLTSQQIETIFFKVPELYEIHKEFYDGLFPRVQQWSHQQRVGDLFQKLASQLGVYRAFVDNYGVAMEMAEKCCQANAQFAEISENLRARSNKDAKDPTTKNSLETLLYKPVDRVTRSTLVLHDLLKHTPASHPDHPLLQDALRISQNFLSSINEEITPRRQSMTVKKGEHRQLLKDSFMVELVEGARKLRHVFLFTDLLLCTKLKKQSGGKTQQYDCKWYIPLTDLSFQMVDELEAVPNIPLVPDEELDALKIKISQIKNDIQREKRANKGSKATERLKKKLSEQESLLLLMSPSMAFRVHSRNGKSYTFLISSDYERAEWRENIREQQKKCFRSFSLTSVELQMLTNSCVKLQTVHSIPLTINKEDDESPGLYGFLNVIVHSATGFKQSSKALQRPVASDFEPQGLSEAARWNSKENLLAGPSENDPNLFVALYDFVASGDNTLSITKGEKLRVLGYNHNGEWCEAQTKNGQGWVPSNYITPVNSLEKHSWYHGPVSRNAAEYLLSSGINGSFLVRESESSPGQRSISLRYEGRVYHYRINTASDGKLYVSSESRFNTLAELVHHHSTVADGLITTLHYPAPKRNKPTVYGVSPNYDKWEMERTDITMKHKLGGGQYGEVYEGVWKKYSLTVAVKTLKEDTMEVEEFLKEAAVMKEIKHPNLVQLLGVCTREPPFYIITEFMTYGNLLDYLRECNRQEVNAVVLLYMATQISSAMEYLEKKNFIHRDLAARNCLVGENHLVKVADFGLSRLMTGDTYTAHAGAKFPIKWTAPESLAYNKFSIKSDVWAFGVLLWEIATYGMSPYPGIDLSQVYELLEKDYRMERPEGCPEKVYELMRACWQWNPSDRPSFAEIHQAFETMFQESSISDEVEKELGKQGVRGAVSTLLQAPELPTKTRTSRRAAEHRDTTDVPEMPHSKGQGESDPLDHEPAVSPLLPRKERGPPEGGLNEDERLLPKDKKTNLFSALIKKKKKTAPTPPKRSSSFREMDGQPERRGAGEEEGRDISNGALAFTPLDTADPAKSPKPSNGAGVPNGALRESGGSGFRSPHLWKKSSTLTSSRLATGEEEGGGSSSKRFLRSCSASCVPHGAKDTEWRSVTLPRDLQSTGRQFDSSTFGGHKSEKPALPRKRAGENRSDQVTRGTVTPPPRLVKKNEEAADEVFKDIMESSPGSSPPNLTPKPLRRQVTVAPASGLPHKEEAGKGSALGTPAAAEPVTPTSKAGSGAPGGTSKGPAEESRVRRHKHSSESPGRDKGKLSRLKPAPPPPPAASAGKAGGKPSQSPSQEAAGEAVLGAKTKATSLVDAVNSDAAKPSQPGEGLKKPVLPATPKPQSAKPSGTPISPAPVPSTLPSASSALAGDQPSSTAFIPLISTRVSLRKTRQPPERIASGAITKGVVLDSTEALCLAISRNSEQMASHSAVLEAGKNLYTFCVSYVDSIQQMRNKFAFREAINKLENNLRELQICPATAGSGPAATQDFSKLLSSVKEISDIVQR
Experiment [2] has as its system K562 cells (BCR-ABL positive). The experiment is described as follows: Half inhibitory concentration (IC50) on tumor cells, CCK-8, K562. Conditions: Homo sapiens, K562, 48 h, read-out: IC50 (nM)/K562 cell line.
In experiment [3] the test system is MV-4-11 cells. The experiment is described as follows: Half inhibitory concentration (IC50) on BET-expressing tumor cells, CCK-8, MV-4-11. Conditions: Homo sapiens, MV4-11, read-out: IC50 (nM)/MV-4-11 cell line, MV-4-11 cells, 48/72 h, CCK-8.
The test system of experiment [4] is MM1S cells. Put plainly: Half inhibitory concentration (IC50) on BET-expressing tumor cells, CCK-8, MM1S. It is filed as cell-based. As to conditions: Homo sapiens, MM1.S, 48/72 h, read-out: IC50 (nM)/MM1S cell line. The method, then:
BET-expressing cells MV-4-11 cells (human B granulocytic leukemia cells), MDA-MB-231 cells (human breast cancer cells), MDA-MB-468 cells (human breast cancer cells), MDA-MB-453 Cells (human breast cancer cells), MM1S cells (myeloma (immunoglobulin A lambda), B lymphoblasts) and SR cells (human large cell immunoblast lymphoma) were purchased from the American Type Culture Collection (ATCC).
The cells used in this present disclosure were cultured in a 37° C. incubator containing 5% CO2. The complete cell culture medium was RPMI 1640/IMDM/DMEM medium with 10% fetal bovine serum, and the final concentrations of penicillin and streptomycin were 100 U/mL, respectively. All cells were tested negative for mycoplasma with mycoplasma detection kit before the experiment.
Determination of the Half Inhibitory Concentration (IC50) of PROTAD Compounds on Tumor Cells
MV-411 cells, MM1S cells and SR cells were seeded in 100 μL IMDM/RPMI1640/DMEM complete medium at a density of 15000/10000 cells/well; MDA-MB-231 cells, MDA-MB-468 cells, and MDA-MB453 cells were seeded in 100 μL IMDM/RPMI1640/DMEM complete medium at a density of 3000/5000 cells/well, respectively. 100 μL of the inoculated cells were treated with 0.5 μL diluted PROTAD compounds of the present disclosure to be tested at 10 successively decreasing concentrations (starting at the highest concentration of 10 μM; 5-fold serial dilutions). After the cells were treated with the tested drugs 48/72 h, the cell viability was determined according to the CCK-8 reagent manual. The negative control was DMSO, and the positive control was a commercial inhibitor. After CCK-8 treatment for 2 h, the value of O.D.450 was measured using a microplate reader.

In experiment [5] the target is ALK protein (Homo sapiens, UniProt Q9UM73). The experiment is described as follows: Western-blot half degradation concentration (DC50) of ALK protein in H3122 cells. Conditions: 24 h drug treatment, read-out: DC50 (nM)/ H3122 cell line. It is filed as cell-based. On the procedure: ALK-positive SR cells (human large cell immunoblastic lymphoma) were purchased from the American Type Culture Collection (ATCC); H3122 cells (human non-small cell lung cancer) were from the Shanghai University of Science and Technology Lin Haifan's research group.
Chain of ALK protein (Q9UM73 with tags, fused parts or gaps): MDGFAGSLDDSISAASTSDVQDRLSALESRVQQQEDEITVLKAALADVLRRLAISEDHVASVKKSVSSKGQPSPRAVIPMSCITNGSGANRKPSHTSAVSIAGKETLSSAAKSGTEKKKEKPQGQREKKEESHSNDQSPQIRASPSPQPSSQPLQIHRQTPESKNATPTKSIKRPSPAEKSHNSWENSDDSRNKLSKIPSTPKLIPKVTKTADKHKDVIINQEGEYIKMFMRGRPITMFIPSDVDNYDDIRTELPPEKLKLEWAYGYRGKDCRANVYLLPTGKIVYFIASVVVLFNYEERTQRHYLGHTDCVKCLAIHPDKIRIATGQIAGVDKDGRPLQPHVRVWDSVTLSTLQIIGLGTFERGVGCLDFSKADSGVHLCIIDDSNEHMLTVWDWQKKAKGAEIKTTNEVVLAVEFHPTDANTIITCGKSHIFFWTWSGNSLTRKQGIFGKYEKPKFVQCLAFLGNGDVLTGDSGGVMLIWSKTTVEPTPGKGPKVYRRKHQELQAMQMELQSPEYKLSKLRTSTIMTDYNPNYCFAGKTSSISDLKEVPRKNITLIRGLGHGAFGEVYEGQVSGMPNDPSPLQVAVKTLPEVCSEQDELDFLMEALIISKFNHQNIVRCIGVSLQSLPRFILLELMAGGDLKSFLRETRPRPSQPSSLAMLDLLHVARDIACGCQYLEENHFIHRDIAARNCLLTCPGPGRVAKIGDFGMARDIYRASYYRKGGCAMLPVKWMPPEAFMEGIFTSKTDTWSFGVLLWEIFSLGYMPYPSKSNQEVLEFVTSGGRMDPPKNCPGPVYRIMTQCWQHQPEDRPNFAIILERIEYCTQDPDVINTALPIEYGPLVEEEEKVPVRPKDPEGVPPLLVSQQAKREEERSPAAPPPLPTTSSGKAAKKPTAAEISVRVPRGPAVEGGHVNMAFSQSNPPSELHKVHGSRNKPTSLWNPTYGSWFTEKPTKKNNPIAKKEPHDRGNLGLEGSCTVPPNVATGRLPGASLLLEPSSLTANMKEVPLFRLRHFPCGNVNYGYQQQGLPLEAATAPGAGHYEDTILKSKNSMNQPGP
The cells used in this present disclosure were cultured in a 37° C. incubator containing 5% CO2.
DC50 (drug concentration corresponding to protein degradation to 50%) calculation: according to the gray value of the corresponding Western blotting band after drug treatment, fitting the relationship curve between drug concentration and gray value to calculate the drug concentration range corresponding to half of the gray value.

In experiment [6] the test system is SR cells. The experiment is described as follows: Half inhibitory concentration (IC50) on ALK-positive SR cell proliferation (CCK-8). It is filed as cell-based. Conditions: Homo sapiens; SR cells, 72 h drug treatment, CCK-8; read-out: IC50 (nM)/ SR cell line. The gist of the method:
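SR cells seeded at 10,000 cells/well in RPMI1640 and treated with PROTAD compounds at 10 concentrations (top 10 μM, 5-fold dilutions) for 72 h at 37° C, 5% CO2. Viability read by CCK-8 (2 h) at OD450; DMSO as negative control.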

In the case of `Cc1nc(Nc2ncc(C(=O)Nc3c(C)cccc3Cl)s2)cc(N2CCN(C(=O)CCSc3cccc4c3C(=O)N(C3CCC(=O)NC3=O)C4=O)CC2)n1` (stereo not shown) [SIAIS151152, N-(2-chloro-6-methylphenyl)-2-((6-(4-(3-((2-(2,6-dioxopiperidin-3-yl)-1,3-dioxoisoindolin-4-yl)thio)propanoyl)piperazin-1-yl)-2-methylpyrimidin-4-yl)amino)thiazole-5-carboxamide], the DC50 in experiment [1] was less than 1 nM. Moreover, in experiment [2], the IC50 came to 11.1 nM.

For the molecule `Cc1nc(Nc2ncc(C(=O)Nc3c(C)cccc3Cl)s2)cc(N2CCN(C(=O)CCCSc3cccc4c3C(=O)N(C3CCC(=O)NC3=O)C4=O)CC2)n1` (stereo not shown) [SIAIS151153, N-(2-chloro-6-methylphenyl)-2-((6-(4-(4-((2-(2,6-dioxopiperidin-3-yl)-1,3-dioxoisoindolin-4-yl)thio)butanoyl)piperazin-1-yl)-2-methylpyrimidin-4-yl)amino)thiazole-5-carboxamide], the DC50 in experiment [1] was found to be 20.7 nM. In experiment [2], the IC50 stood at 15 nM.

`Cc1nc(Nc2ncc(C(=O)Nc3c(C)cccc3Cl)s2)cc(N2CCN(C(=O)CCCCSc3cccc4c3C(=O)N(C3CCC(=O)NC3=O)C4=O)CC2)n1` (stereo not shown) [SIAIS151154, N-(2-chloro-6-methylphenyl)-2-((6-(4-(5-((2-(2,6-dioxopiperidin-3-yl)-1,3-dioxoisoindolin-4-yl)thio)pentanoyl)piperazin-1-yl)-2-methylpyrimidin-4-yl)amino)thiazole-5-carboxamide]: the DC50 in experiment [1] was found to be 2 nM. In experiment [2], the IC50 turned out to be 5.74 nM.

Regarding `Cc1nc(Nc2ncc(C(=O)Nc3c(C)cccc3Cl)s2)cc(N2CCN(C(=O)CCCCCSc3cccc4c3C(=O)N(C3CCC(=O)NC3=O)C4=O)CC2)n1` (stereo not shown) [SIAIS151155, N-(2-chloro-6-methylphenyl)-2-((6-(4-(6-((2-(2,6-dioxopiperidin-3-yl)-1,3-dioxoisoindolin-4-yl)thio)hexanoyl)piperazin-1-yl)-2-methylpyrimidin-4-yl)amino)thiazole-5-carboxamide], in experiment [1], the DC50 turned out to be 0.8 nM. In experiment [2], the IC50 was determined as 8.66 nM.

With `Cc1nc(Nc2ncc(C(=O)Nc3c(C)cccc3Cl)s2)cc(N2CCN(C(=O)CCCCCCSc3cccc4c3C(=O)N(C3CCC(=O)NC3=O)C4=O)CC2)n1` (stereo not shown) [SIAIS151156, N-(2-chloro-6-methylphenyl)-2-((6-(4-(7-((2-(2,6-dioxopiperidin-3-yl)-1,3-dioxoisoindolin-4-yl)thio)heptanoyl)piperazin-1-yl)-2-methylpyrimidin-4-yl)amino)thiazole-5-carboxamide], the DC50 in experiment [1] turned out to be 2.9 nM. Moreover, in experiment [2], the IC50 amounted to 6.63 nM.

Regarding `Cc1sc2c(c1C)C(c1ccc(Cl)cc1)=N[C@@H](CC(=O)NCCOCCOCCSc1cccc3c1C(=O)N(C1CCC(=O)NC1=O)C3=O)c1nnc(C)n1-2` (stereo partly drawn) [SIAIS213070, 2-((S)-4-(4-chlorophenyl)-2,3,9-trimethyl-6H-thieno[3,2-f][1,2,4]triazolo[4,3-a][1,4]diazepin-6-yl)-N-(2-(2-(2-((2-(2,6-dioxopiperidin-3-yl)-1,3-dioxoisoindolin-4-yl)thio)ethoxy)ethoxy)ethyl)acetamide], the results for the IC50 in experiment [3] and in experiment [4] were 2 ± 0.4 nM and 12.8 nM, respectively.

As for `Cc1sc2c(c1C)C(c1ccc(Cl)cc1)=N[C@@H](CC(=O)NCCOCCOCCSc1cccc3c1CN(C1CCC(=O)NC1=O)C3=O)c1nnc(C)n1-2` (stereo partly drawn) [SIAIS213072, 2-((S)-4-(4-chlorophenyl)-2,3,9-trimethyl-6H-thieno[3,2-f][1,2,4]triazolo[4,3-a][1,4]diazepin-6-yl)-N-(2-(2-(2-((2-(2,6-dioxopiperidin-3-yl)-1-oxoisoindolin-4-yl)thio)ethoxy)ethoxy)ethyl)acetamide], the values for the IC50 in experiment [3] and in experiment [4] were 0.5 ± 0.1 nM and 3.03 nM, respectively.

Turning to `Cc1sc2c(c1C)C(c1ccc(Cl)cc1)=N[C@@H](CC(=O)NCCCCNC(=O)CSc1cccc3c1C(=O)N(C1CCC(=O)NC1=O)C3=O)c1nnc(C)n1-2` (stereo partly drawn) [SIAIS213075, 2-((S)-4-(4-chlorophenyl)-2,3,9-trimethyl-6H-thieno[3,2-f][1,2,4]triazolo[4,3-a][1,4]diazepin-6-yl)-N-(4-(2-((2-(2,6-dioxopiperidin-3-yl)-1,3-dioxoisoindolin-4-yl)thio)acetamido)butyl)acetamide], the IC50 in experiment [3] is 6.5 ± 2.5 nM; in experiment [4] it was 96.1 nM.

As to `Cc1sc2c(c1C)C(c1ccc(Cl)cc1)=N[C@@H](CC(=O)NCCCCNC(=O)CSc1cccc3c1CN(C1CCC(=O)NC1=O)C3=O)c1nnc(C)n1-2` (stereo partly drawn) [SIAIS213094, 2-((S)-4-(4-chlorophenyl)-2,3,9-trimethyl-6H-thieno[3,2-f][1,2,4]triazolo[4,3-a][1,4]diazepin-6-yl)-N-(4-(2-((2-(2,6-dioxopiperidin-3-yl)-1-oxoisoindolin-4-yl)thio)acetamido)butyl)acetamide], the figures for the IC50 in experiment [3] and in experiment [4] were 4.9 ± 0.8 nM and 42.5 nM, respectively.

Turning to `COc1cc(N2CCN(C(=O)CSc3cccc4c3C(=O)N(C3CCC(=O)NC3=O)C4=O)CC2)ccc1Nc1ncc(Cl)c(Nc2ccccc2P(C)(C)=O)n1` (stereo not shown) [SIAIS1197113, 4-((2-(4-(4-((5-chloro-4-((2-(dimethylphosphoryl)phenyl)amino)pyrimidin-2-yl)amino)-3-methoxyphenyl)piperazin-1-yl)-2-oxoethyl)thio)-2-(2,6-dioxopiperidin-3-yl)isoindoline-1,3-dione], the DC50 in experiment [5] came out at 100 nM. Further, the IC50 in experiment [6] turned out to be 23.6 ± 19.4 nM.

As to `COc1cc(N2CCN(C(=O)CCSc3cccc4c3C(=O)N(C3CCC(=O)NC3=O)C4=O)CC2)ccc1Nc1ncc(Cl)c(Nc2ccccc2P(C)(C)=O)n1` (stereo not shown) [SIAIS1197115, 4-((3-(4-(4-((5-chloro-4-((2-(dimethylphosphoryl)phenyl)amino)pyrimidin-2-yl)amino)-3-methoxyphenyl)piperazin-1-yl)-3-oxopropyl)thio)-2-(2,6-dioxopiperidin-3-yl)isoindoline-1,3-dione], the DC50 in experiment [5] amounted to 500 nM. The IC50 in experiment [6] was found to be 42 ± 29.3 nM.

As to `COc1cc(N2CCN(C(=O)CCCSc3cccc4c3C(=O)N(C3CCC(=O)NC3=O)C4=O)CC2)ccc1Nc1ncc(Cl)c(Nc2ccccc2P(C)(C)=O)n1` (stereo not shown) [SIAIS1197117, 4-((4-(4-(4-((5-chloro-4-((2-(dimethylphosphoryl)phenyl)amino)pyrimidin-2-yl)amino)-3-methoxyphenyl)piperazin-1-yl)-4-oxobutyl)thio)-2-(2,6-dioxopiperidin-3-yl)isoindoline-1,3-dione], the DC50 in experiment [5] is 500 nM. In experiment [6], the IC50 was 16.9 ± 12 nM.

As to `COc1cc(N2CCN(C(=O)CCCCSc3cccc4c3C(=O)N(C3CCC(=O)NC3=O)C4=O)CC2)ccc1Nc1ncc(Cl)c(Nc2ccccc2P(C)(C)=O)n1` (stereo not shown) [SIAIS1197119, 4-((5-(4-(4-((5-chloro-4-((2-(dimethylphosphoryl)phenyl)amino)pyrimidin-2-yl)amino)-3-methoxyphenyl)piperazin-1-yl)-5-oxopentyl)thio)-2-(2,6-dioxopiperidin-3-yl)isoindoline-1,3-dione], the DC50 in experiment [5] is 500 nM. Further, the IC50 in experiment [6] was 13.2 ± 2.6 nM.

Take `COc1cc(N2CCN(C(=O)CCCCCCSc3cccc4c3C(=O)N(C3CCC(=O)NC3=O)C4=O)CC2)ccc1Nc1ncc(Cl)c(Nc2ccccc2P(C)(C)=O)n1` (stereo not shown) [SIAIS1197159, 4-((7-(4-(4-((5-chloro-4-((2-(dimethylphosphoryl)phenyl)amino)pyrimidin-2-yl)amino)-3-methoxyphenyl)piperazin-1-yl)-7-oxoheptyl)thio)-2-(2,6-dioxopiperidin-3-yl)isoindoline-1,3-dione]: in experiment [5], the DC50 amounted to 500 nM. Moreover, the IC50 in experiment [6] was 10 ± 5.7 nM.
